Reference: patent EP1951725B1, “N-SULFAMOYL-N -BENZOPYRANPIPERIDINES AS INHBITORS OF CARBONIC ANHYDRASES” (Abbott Products GmbH, priority 2005, dated 2007)

Columns and labels:
[1] = Acute in vivo food intake test in mice; conditions: 24h food intake, male or female C57BI/6 mice, high caloric diet, oral gavage 100 mg/kg/day in two half doses
Protocol: 2. Acute in vivo food intake test in mice
The studies were carried out in male or female C57BI/6 mice (n=8-12 per group). The mice were kept on an inverted 12/12h light/dark cycle (lights on 22:00). They were allowed food (high caloric diet) and water ad libitum. Food intake and water consumption was measured daily. The test compound of general Formula I was suspended in 1% methylcellulose in water and 2% (v/v) of Poloxamer 188 (Lutrol F68®) and administered by oral gavage at a dose of 100 mg/kg/day. One half of the dose was administered at 7.00-9.00 h; the remaining half of the dose was administered between 15.00-15.30 h.
In the test model described above, the test substances caused a decrease of the animals' 24h food intake to the percentages of food intake when compared to control as given in Table 2 below. Table 2: Influence of test substances on food intake

[2] = biological target: T1, human carbonic anhydrase isoenzyme II (hCA II) (Homo sapiens, UniProt P00918); test: biochemical; assay type: binding; conditions: hCA II from erythrocytes 10^-7 M/L, dansylamide 2.25x10^-6, pH 7.4, 60 min preincubation, read at 60 min at 37°C, single measurements
T1 construct: human carbonic anhydrase isoenzyme II from erythrocytes (Sigma-Aldrich); purchased Sigma-Aldrich; host or cells: human erythrocytes (natural source)
Protocol: 1. In vitro inhibition of human carbonic anhydrase isoenzyme II (hCA II)
The test compounds of general Formula I in 96 well microplates were diluted with aqua bidest by using an automatic pipettor (CyBiWell®). From the different dilution plates, aliquots of 20 µl were transferred to the 96 well black assay plates with a pipetting station (Tecan Genesis®). In a second step, 148 µl of potassium phosphate buffer (20 mM, pH 7.4) was added, and as a third step, 20 µl of enzyme solution (1 µM human carbonic anhydrase isoenzyme II from erythrocytes (Sigma-Aldrich), dissolved in potassium phosphate buffer) incubated for 60 min at room temperature and the fluorescence signal (Tecan Ultra® fluorescence reader; excitation wavelength: 280 nm; emission wavelength: 465 nm) read at the end of the preincubation period (FLU-1). After the preincubation time, 20 µl of aqueous dansylamide solution (1 mM dansylamide (Sigma-Aldrich), dissolved in hydrochloric acid) were added and the fluorescence signal read every 10 min for a period of 60 min at 37°C. For calculation, the fluorescence data of the time point 60 min (FLU-2) were used. The total volume of assay mixture amounted to 208 µl. […] Data were expressed as % inhibition after calculation by the formula: % inhibition = 100((1-(FLU-2_cpd-FLU-2_blank-FLU-1_cpd+FLU-1_blank)/(FLU-2_control-FLU-2_blank-FLU-1_control-FLU-1_blank)) [formula] […]

IC50 [2]	SMILES	food intake [1]
	NS(=O)(=O)N1CCC2(CC1)CC(=O)c1ccccc1O2 [Example 1]	83 % of control
6.6 µM	NS(=O)(=O)N1CCC2(CC1)CC(=O)c1cc(Br)ccc1O2 [Example 2]	
